The values that follow come from PubChem BioAssay (NCI).

Some test systems named below: KM12 colon; MOLT-4 leukemia; HL-60(TB) leukemia; SK-MEL-5 melanoma; SW-620 colon; HOP-92 NSCLC; SK-MEL-28 melanoma; SF-268 CNS; SK-OV-3 ovarian; RPMI-8226 leukemia; CAKI-1 renal; SNB-19 CNS; MALME-3M melanoma; IGROV1 ovarian; U251 CNS; OVCAR-8 ovarian; HOP-62 NSCLC; NCI-H226 lung.
Common to all, as to assay: growth of human tumour cells (NCI), 48 h

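48-hour exposure; five concentrations; linearly interpolated endpoints. TGI marks complete inhibition of growth.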

As to `CC1CN=C(N(C(=O)Nc2ccccc2)c2ccc(Cl)c(Cl)c2)S1` (configuration not stated), the TGI in the assay with KM12 colon was above 100 µM; in the assay on MOLT-4 leukemia, above 10 µM; in the assay on HL-60(TB) leukemia, above 100 µM; in the assay on SK-MEL-5 melanoma it was 34.5 µM; in the assay on SW-620 colon, above 100 µM; in the assay with HOP-92 NSCLC, 52.3 µM. Besides, the TGI with SK-MEL-28 melanoma, in the assay with SF-268 CNS, in the assay with SK-OV-3 ovarian, in the assay with RPMI-8226 leukemia, with CAKI-1 renal and in the assay on SNB-19 CNS was above 100 µM throughout. Moreover, the TGI in the assay with MALME-3M melanoma is above 100 µM; with IGROV1 ovarian, above 100 µM; in the assay with U251 CNS, above 10 µM; in the assay with OVCAR-8 ovarian, above 100 µM; with HOP-62 NSCLC, above 100 µM.
For `CN(C)/N=C1/CCC(C(F)(F)F)(C(F)(F)F)O1`, the TGI is 48.8 µM in the assay on KM12 colon; above 100 µM in the assay on MOLT-4 leukemia; 54.8 µM with HL-60(TB) leukemia; 52.6 µM in the assay with SK-MEL-5 melanoma; above 100 µM in the assay on SW-620 colon; 70.1 µM with HOP-92 NSCLC. Moreover, the TGI in the assay on SK-MEL-28 melanoma is above 100 µM; in the assay with SF-268 CNS, above 100 µM; with SK-OV-3 ovarian, above 100 µM; with RPMI-8226 leukemia it was 85.5 µM; in the assay on CAKI-1 renal it was above 100 µM; with SNB-19 CNS it was above 100 µM. Further, the TGI is 61.1 µM in the assay with MALME-3M melanoma; 82.7 µM with IGROV1 ovarian; 84 µM with NCI-H226 lung; above 100 µM in the assay with U251 CNS; 85 µM in the assay on HOP-62 NSCLC.
Consider `COc1ccc(/C=C(\C(C)=O)C(=O)Nc2ccccc2)cc1`, for which the TGI with KM12 colon, with MOLT-4 leukemia, with HL-60(TB) leukemia, with SK-MEL-5 melanoma, with SW-620 colon and in the assay on HOP-92 NSCLC was above 100 µM each time. Further, the TGI with SK-MEL-28 melanoma, with SF-268 CNS, in the assay on SK-OV-3 ovarian, in the assay with RPMI-8226 leukemia, in the assay on CAKI-1 renal and in the assay with SNB-19 CNS was above 100 µM in each case. Moreover, the TGI in the assay with MALME-3M melanoma, in the assay on IGROV1 ovarian, in the assay on NCI-H226 lung, in the assay with U251 CNS, with OVCAR-8 ovarian and in the assay on HOP-62 NSCLC was above 100 µM in each case.
`CCOC(=O)c1sc2c(c1OC(=O)c1ccc(OC)cc1)c(=O)n(-c1ccccc1)c(=S)n2-c1ccccc1`: the TGI was above 100 µM in the assay with KM12 colon; above 100 µM in the assay on MOLT-4 leukemia; above 100 µM with HL-60(TB) leukemia; above 100 µM in the assay on SK-MEL-5 melanoma; above 100 µM in the assay on SW-620 colon; 63.4 µM with HOP-92 NSCLC. The TGI in the assay on SK-MEL-28 melanoma, in the assay with SF-268 CNS, in the assay on SK-OV-3 ovarian, in the assay with RPMI-8226 leukemia, with CAKI-1 renal and in the assay on SNB-19 CNS was above 100 µM throughout. Further, the TGI was above 100 µM in the assay with MALME-3M melanoma; above 100 µM with IGROV1 ovarian; 73 µM in the assay on NCI-H226 lung; above 100 µM in the assay on U251 CNS; above 100 µM with OVCAR-8 ovarian; above 100 µM in the assay with HOP-62 NSCLC.
Regarding `COC1(OC)CCCc2c1no[n+]2[O-]`, the TGI in the assay on KM12 colon, with MOLT-4 leukemia, in the assay with HL-60(TB) leukemia, in the assay on SK-MEL-5 melanoma, in the assay with SW-620 colon and with SK-MEL-28 melanoma was above 100 µM throughout. The TGI with SF-268 CNS, in the assay on SK-OV-3 ovarian, with RPMI-8226 leukemia, in the assay with CAKI-1 renal, in the assay with SNB-19 CNS and in the assay on MALME-3M melanoma was above 100 µM in each case. Moreover, the TGI in the assay with IGROV1 ovarian, with NCI-H226 lung, with U251 CNS, in the assay with OVCAR-8 ovarian and with HOP-62 NSCLC was above 100 µM throughout.
On to `COC(=O)[C@@]1(C)/C(=N/NS(=O)(=O)c2ccc(C)cc2)CCC[C@@H]1C`, for which the TGI with KM12 colon, in the assay on MOLT-4 leukemia, with HL-60(TB) leukemia, with SK-MEL-5 melanoma, in the assay with HOP-92 NSCLC and in the assay on SK-MEL-28 melanoma was above 100 µM throughout. The TGI with SF-268 CNS was above 100 µM; with SK-OV-3 ovarian, above 100 µM; in the assay on RPMI-8226 leukemia it was 72.6 µM; in the assay with CAKI-1 renal, above 100 µM; in the assay with SNB-19 CNS, above 100 µM; in the assay on MALME-3M melanoma, above 100 µM. In addition, the TGI in the assay on IGROV1 ovarian, in the assay on NCI-H226 lung, in the assay with U251 CNS, in the assay with OVCAR-8 ovarian and with HOP-62 NSCLC was above 100 µM throughout.
Consider `Cc1nn(C(=O)CC(=O)Nc2ccc(Cl)cc2)c(C)c1N=Nc1ccccc1C(=O)O`, for which the TGI in the assay on KM12 colon, in the assay with MOLT-4 leukemia, in the assay with HL-60(TB) leukemia, in the assay on SK-MEL-5 melanoma, with SW-620 colon and in the assay on SK-MEL-28 melanoma was above 100 µM throughout. The TGI in the assay with SF-268 CNS, in the assay on SK-OV-3 ovarian, in the assay with RPMI-8226 leukemia, in the assay with CAKI-1 renal, in the assay with SNB-19 CNS and in the assay with MALME-3M melanoma was above 100 µM throughout. Further, the TGI with IGROV1 ovarian, in the assay with U251 CNS, with OVCAR-8 ovarian and in the assay on HOP-62 NSCLC was above 100 µM throughout.
As to `CC(=O)NC1=N/C(=C\c2ccc(Cl)cc2)C(=O)N1/C=C1\C(=O)Oc2ccccc2C1=O`, the TGI with KM12 colon, in the assay on MOLT-4 leukemia, with HL-60(TB) leukemia, in the assay on SK-MEL-5 melanoma, in the assay with SW-620 colon and in the assay with SK-MEL-28 melanoma was above 100 µM each time. Also, the TGI with SF-268 CNS, in the assay on SK-OV-3 ovarian, in the assay on RPMI-8226 leukemia, with CAKI-1 renal, with SNB-19 CNS and with MALME-3M melanoma was above 100 µM each time. In addition, the TGI in the assay with IGROV1 ovarian, in the assay on NCI-H226 lung, in the assay on U251 CNS, with OVCAR-8 ovarian and in the assay with HOP-62 NSCLC was above 100 µM throughout.
